We go through six compounds from patent publication US20230150974A1 (Foghorn Therapeutics Inc., priority 2020, published 2023).

Test [1] addresses T1, HiBiT-BRM (Homo sapiens, UniProt P51531).
T1 construct: expressed in transfected cells
Nature of the test: HiBiT-BRM cell-based degradation assay (Nano-Glo HiBiT Lytic Detection). The note with it: HeLa cells expressing HiBiT-BRM, 24 h; for DC50: read-out: BRM HiBit Degradation IC50. The gist of the method:
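HeLa cells stably expressing HiBiT-tagged BRM were treated for 24 h, then lysed with LgBiT-containing Nano-Glo reagent and luminescence read. % degradation scaled between DMSO (high control) and 2 μM reference BRM/BRG1 degrader (low control).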

Test [2] addresses T2, HiBit-BRG1 (Homo sapiens, UniProt P51532).
T2 construct: expressed in transfected cells
Nature of the test: HiBit-BRG1 cell-based degradation assay (Nano-Glo HiBiT Lytic Detection). The note with it: HeLa cells expressing HiBit-BRG1 and LgBit, 24 h; for DC50: read-out: BRG1 HiBit Degradation IC50; for Dmax: read-out: BRG1 HiBit Degradation Maximum (%). The gist of the method: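 Luminescence from Nano-Glo HiBiT lytic detection, read after 24 h compound exposure, scored degradation in a stable HeLa HiBiT-BRG1/LgBit line seeded at 5000 cells/well. DMSO wells defined 0% and 2 μM known BRM/BRG1 degrader wells defined full degradation.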

Molecules are shown by their SMILES.

T2 sequence (P51532 whole entry): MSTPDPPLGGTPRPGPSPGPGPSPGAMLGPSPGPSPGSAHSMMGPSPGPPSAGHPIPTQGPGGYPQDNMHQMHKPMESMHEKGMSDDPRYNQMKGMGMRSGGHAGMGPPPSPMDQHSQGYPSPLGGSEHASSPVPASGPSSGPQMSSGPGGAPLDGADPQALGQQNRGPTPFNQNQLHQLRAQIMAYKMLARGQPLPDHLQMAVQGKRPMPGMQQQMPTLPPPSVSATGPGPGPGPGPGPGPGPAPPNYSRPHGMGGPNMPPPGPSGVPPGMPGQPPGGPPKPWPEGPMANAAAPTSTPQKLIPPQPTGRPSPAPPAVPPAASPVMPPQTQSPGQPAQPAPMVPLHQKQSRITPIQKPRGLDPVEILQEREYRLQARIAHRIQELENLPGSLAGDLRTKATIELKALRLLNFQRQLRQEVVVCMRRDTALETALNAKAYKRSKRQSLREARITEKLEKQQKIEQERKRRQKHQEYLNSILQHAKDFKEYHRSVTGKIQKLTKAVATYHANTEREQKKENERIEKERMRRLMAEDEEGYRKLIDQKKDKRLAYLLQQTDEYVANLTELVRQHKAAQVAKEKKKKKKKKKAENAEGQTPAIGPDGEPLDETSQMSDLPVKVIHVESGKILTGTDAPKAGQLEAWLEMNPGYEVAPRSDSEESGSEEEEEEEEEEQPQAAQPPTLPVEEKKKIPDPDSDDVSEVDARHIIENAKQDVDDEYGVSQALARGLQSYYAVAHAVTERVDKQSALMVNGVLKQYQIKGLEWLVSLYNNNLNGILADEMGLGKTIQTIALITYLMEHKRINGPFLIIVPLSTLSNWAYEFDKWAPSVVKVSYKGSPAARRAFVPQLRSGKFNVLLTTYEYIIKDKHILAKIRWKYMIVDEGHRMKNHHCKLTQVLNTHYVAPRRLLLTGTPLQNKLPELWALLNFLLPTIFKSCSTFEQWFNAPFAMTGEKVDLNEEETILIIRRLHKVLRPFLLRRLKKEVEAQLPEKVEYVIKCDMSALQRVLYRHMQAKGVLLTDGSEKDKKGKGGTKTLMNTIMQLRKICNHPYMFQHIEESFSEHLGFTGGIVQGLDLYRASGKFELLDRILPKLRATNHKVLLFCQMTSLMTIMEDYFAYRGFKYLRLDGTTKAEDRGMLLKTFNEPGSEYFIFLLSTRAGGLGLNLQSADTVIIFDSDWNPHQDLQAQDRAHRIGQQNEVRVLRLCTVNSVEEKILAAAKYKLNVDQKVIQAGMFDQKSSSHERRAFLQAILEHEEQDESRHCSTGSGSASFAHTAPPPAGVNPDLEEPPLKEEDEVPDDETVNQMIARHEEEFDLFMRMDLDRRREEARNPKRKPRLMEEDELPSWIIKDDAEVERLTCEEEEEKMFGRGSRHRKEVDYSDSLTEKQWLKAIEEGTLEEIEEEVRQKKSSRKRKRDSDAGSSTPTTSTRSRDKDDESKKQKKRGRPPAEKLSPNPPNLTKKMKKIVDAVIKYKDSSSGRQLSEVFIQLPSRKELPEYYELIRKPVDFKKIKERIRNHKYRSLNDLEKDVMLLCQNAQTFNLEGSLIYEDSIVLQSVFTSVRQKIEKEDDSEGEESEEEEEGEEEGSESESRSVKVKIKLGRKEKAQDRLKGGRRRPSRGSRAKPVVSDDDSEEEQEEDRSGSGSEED
T1 sequence (P51531 whole entry): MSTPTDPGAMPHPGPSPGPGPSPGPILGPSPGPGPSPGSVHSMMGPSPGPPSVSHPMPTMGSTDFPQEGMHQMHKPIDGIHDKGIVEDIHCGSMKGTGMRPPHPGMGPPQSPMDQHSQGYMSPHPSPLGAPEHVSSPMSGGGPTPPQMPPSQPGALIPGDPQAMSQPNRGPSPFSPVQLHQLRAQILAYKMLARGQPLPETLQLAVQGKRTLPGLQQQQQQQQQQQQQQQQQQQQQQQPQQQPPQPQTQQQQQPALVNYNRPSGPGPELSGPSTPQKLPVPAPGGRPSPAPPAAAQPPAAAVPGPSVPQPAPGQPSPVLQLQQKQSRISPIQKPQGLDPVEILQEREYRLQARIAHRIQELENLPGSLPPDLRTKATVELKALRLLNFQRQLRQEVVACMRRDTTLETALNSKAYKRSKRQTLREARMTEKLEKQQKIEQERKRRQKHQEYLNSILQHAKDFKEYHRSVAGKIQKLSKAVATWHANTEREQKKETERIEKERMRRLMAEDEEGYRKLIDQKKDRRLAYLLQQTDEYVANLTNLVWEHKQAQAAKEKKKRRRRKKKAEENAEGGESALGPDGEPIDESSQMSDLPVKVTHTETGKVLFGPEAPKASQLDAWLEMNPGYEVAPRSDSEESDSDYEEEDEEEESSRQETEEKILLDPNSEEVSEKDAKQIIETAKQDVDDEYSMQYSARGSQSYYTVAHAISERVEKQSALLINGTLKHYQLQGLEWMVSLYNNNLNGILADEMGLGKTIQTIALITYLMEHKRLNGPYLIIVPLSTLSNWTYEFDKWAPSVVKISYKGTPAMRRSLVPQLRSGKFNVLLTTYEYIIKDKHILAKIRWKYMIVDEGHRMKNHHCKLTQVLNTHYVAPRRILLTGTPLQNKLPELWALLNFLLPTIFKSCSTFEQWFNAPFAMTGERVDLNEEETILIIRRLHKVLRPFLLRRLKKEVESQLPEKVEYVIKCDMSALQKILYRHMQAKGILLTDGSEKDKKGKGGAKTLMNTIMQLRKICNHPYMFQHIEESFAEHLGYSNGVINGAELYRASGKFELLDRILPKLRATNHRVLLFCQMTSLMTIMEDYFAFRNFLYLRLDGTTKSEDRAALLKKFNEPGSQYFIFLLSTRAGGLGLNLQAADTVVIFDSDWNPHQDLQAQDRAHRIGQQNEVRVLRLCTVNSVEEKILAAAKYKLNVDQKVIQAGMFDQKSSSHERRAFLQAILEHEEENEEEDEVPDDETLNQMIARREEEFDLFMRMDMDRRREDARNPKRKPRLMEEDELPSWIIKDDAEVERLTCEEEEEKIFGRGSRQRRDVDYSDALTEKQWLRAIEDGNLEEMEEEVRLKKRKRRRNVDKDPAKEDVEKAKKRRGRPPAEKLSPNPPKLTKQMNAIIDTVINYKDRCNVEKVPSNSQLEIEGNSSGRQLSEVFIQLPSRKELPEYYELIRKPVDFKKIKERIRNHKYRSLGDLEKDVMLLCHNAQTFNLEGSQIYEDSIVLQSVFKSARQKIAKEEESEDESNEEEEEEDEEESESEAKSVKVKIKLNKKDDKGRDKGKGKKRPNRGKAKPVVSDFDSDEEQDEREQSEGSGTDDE

As for `Cc1ncsc1-c1ccc(CNC(=O)[C@@H]2C[C@@H](O)CN2C(=O)[C@@H](NC(=O)CCCCN2CCN(CCC(=O)NCc3ccc(CCOc4cc(-c5ccccc5O)nnc4N)cc3)CC2)C(C)(C)C)cc1` [Compound 260, (2S,4R)-1-((S)-2-(5-(4-(3-((4-(2-((3-amino-6-(2-hydroxyphenyl)pyridazin-4-yl)oxy)ethyl)benzyl)amino)-3-oxopropyl)piperazin-1-yl)pentanamido)-3,3-dimethylbutanoyl)-4-hydroxy-N-(4-(4-methylthiazol-5-yl)benzyl)pyrrolidine-2-carboxamide], in test [1], the “BRM HiBit Degradation Maximum (%)” value is “C (“C” indicates maximum degradation <50%)” and the DC50 is greater than 1000 nM. Moreover, in test [2], the DC50 is greater than 1000 nM and the Dmax is less than 50%.

Turning to `Nc1nnc(-c2ccccc2O)cc1N1CCN(CC(=O)NCCCCCNc2ccc3c(c2)C(=O)N(C2CCC(=O)NC2=O)C3=O)CC1` (stereo not drawn) [Compound 87, 2-[4-[3-amino-6-(2-hydroxyphenyl)pyridazin-4-yl]piperazin-1-yl]-N-(5-[[2-(2,6-dioxopiperidin-3-yl)-1,3-dioxo-2,3-dihydro-1H-isoindol-5-yl]amino]pentyl)acetamide; formic acid], in test [1], the “BRM HiBit Degradation Maximum (%)” value is recorded as “B (“B” indicates maximum degradation ≥50%)” and the DC50 is greater than 1000 nM. Besides, in test [2], the DC50 was greater than 1000 nM and the Dmax was greater than 50%.

For `Nc1nnc(-c2ccccc2O)cc1N1CCN(CCNC(=O)CCCCCCCCCCNc2ccc3c(c2)C(=O)N(C2CCC(=O)NC2=O)C3=O)CC1` (stereo not drawn) [Compound 99, N-(2-[4-[3-amino-6-(2-hydroxyphenyl)pyridazin-4-yl]piperazin-1-yl]ethyl)-11-[[2-(2,6-dioxopiperidin-3-yl)-1,3-dioxo-2,3-dihydro-1H-isoindol-5-yl]amino]undecanamide], in test [1], the “BRM HiBit Degradation Maximum (%)” value is “C (“C” indicates maximum degradation <50%)” and the DC50 is greater than 1000 nM. Also, in test [2], the DC50 is greater than 1000 nM and the Dmax was less than 50%.

Turning to `Nc1nnc(-c2ccccc2O)cc1OCCc1ccc(C(=O)NCC(=O)NCc2ccc(S(=O)(=O)Nc3cccc4c(Cl)c[nH]c34)cc2)cc1` [Compound 18, 2-[[4-(2-[[3-amino-6-(2-hydroxyphenyl)pyridazin-4-yl]oxy]ethyl)phenyl]formamido]-N-([4-[(3-chloro-1H-indol-7-yl)sulfamoyl]phenyl]methyl)acetamide], in test [1], the “BRM HiBit Degradation Maximum (%)” value was “C (“C” indicates maximum degradation <50%)” and the DC50 is greater than 1000 nM. Further, in test [2], the DC50 was greater than 1000 nM and the Dmax was less than 50%.

As for `Cc1ncsc1-c1ccc(CNC(=O)[C@@H]2C[C@@H](O)CN2C(=O)[C@@H](NC(=O)CCN2CCC(O)(C(=O)NCc3ccc(CCOc4cc(-c5ccccc5O)nnc4N)cc3)CC2)C(C)(C)C)cc1` [Compound 185, N-[[4-(2-[[3-amino-6-(2-hydroxyphenyl)pyridazin-4-yl]oxy]ethyl)phenyl]methyl]-4-hydroxy-1-(2-[[(2S)-1-[(2S,4R)-4-hydroxy-2-([[4-(4-methyl-1,3-thiazol-5-yl)phenyl]methyl]carbamoyl)pyrrolidin-1-yl]-3,3-dimethyl-1-oxobutan-2-yl]carbamoyl]ethyl)piperidine-4-carboxamide], in test [1], the “BRM HiBit Degradation Maximum (%)” value was “C (“C” indicates maximum degradation <50%)” and the DC50 is greater than 1000 nM. Further, in test [2], the DC50 was greater than 1000 nM and the Dmax is less than 50%.

`Nc1nnc(-c2cccc(Cl)c2O)cc1OCCc1ccc(CNCCCCCOc2cccc3c2C(=O)N(C2CCC(=O)NC2=O)C3=O)cc1` (stereo not drawn) [Compound 124, 4-((5-((4-(2-((3-amino-6-(3-chloro-2-hydroxyphenyl)pyridazin-4-yl)oxy)ethyl)benzyl)amino)pentyl)oxy)-2-(2,6-dioxopiperidin-3-yl)isoindoline-1,3-dione]: in test [1], the “BRM HiBit Degradation Maximum (%)” value is “C (“C” indicates maximum degradation <50%)” and the DC50 was greater than 1000 nM. Further, in test [2], the DC50 was greater than 1000 nM and the Dmax is less than 50%.
